# Data: article PMC12040169 (PLOS Biology, 2025)
# Assay: in vitro
# Conditions: human, hela cells, % viability
row,Structure (SMILES),"viability at 28.5 h, 10 µM [%]"
1,O=C(CSCc1nc2ccccc2c(=O)n1-c1ccccc1Cl)Nc1ccccc1 [CBK070895],95.2
2,COc1cccc(NC(=O)CCS(=O)(=O)c2cccs2)c1 [CBK071069],100
3,Cc1c(Br)c(C(F)(F)F)nn1CC(=O)N1CCCC1 [CBK071473],92.9
4,CCc1ccc(CNC(=O)c2ccc3c(c2)NC(=O)C(N2CCOCC2)S3)cc1 (centres unmarked) [CBK071737],93.2
5,CCCCNC(=O)c1ccc2c(c1)NC(=O)C(N1CCCC1)S2 (centres unmarked) [CBK071762],98.4
6,COC(=O)Cn1cnc2sc(C(=O)Nc3ccccc3OC)c(C)c2c1=O [CBK071808],109
7,CCCn1cnc2sc(C(=O)Nc3ccc(C)cc3C)c(C)c2c1=O [CBK071815],84.6
8,COCCNC(=O)c1sc2ncn(CC(=O)Nc3ccccc3OC)c(=O)c2c1C [CBK071846],88.7
9,CCOCCn1cnc2sc(C(=O)Nc3cccc(Cl)c3)c(C)c2c1=O [CBK071854],91.8
10,Cc1cc2c(=O)n(CC(=O)NCc3ccco3)cnc2s1 [CBK071898],91.2
11,COCCCNC(=O)Cn1cnc2sc(C)cc2c1=O [CBK071899],102
12,CCOc1ccc(C(=O)Nc2nc(-c3ccc(F)cc3)cs2)cc1 [CBK072020],91
13,O=C(Nc1nc2ccccc2s1)c1cc([N+](=O)[O-])ccc1Cl [CBK072428],85.9
14,O=C(c1cccnc1)N1CCN(C(=O)c2ccco2)CC1 [CBK072684],94.3
15,Fc1cccc(Nc2nc(-c3ccncc3)nc3ccccc23)c1 [CBK072732],89.5
16,CCOc1ccc(Nc2ncnc3c2cnn3Cc2ccccc2)cc1 [CBK072752],97.8
17,Cc1cccc(Nc2ncnc3ccccc23)c1 [CBK072827],114
18,Cc1cc(C)c(OCC(=O)Nc2cc(-c3nc4ncccc4o3)ccc2C)c(Cl)c1 [CBK072887],92.7
19,Cc1cc(NC(=O)c2ccc3c(c2)C(=O)N(CC2CCCO2)C3=O)no1 (centres unmarked) [CBK072998],90.2
20,Cc1cccc(C(=O)Nc2ccc3oc(-c4cccnc4)nc3c2)c1 [CBK073161],82.7
21,CCCc1c(O)nc(SCC(=O)NCc2ccco2)[nH]c1=O [CBK073278],95.2
22,CCCCc1c(O)nc(SCC(=O)NCC2CCCO2)[nH]c1=O (centres unmarked) [CBK073281],97.6
23,C=CCNC(=O)CSc1nc(O)cc(=O)[nH]1 [CBK073298],104

row,Structure (SMILES),"viability at 28.5 h, 10 µM [%]"
1,C=CCc1c(O)nc(SCC(=O)N2CCOCC2)[nH]c1=O [CBK073301],91.8
2,O=C(O)CC(NS(=O)(=O)c1cccc2nsnc12)C(=O)O (centres unmarked) [CBK073316],112
3,C=CCOC(=O)C1=C(C)N=C2SCCC(=O)N2C1c1ccc(SC)cc1 (centres unmarked) [CBK073405],93.5
4,COc1ccc(C)cc1S(=O)(=O)Nc1cc(N2CCN(C(C)C)CC2)c2occc2c1 [CBK073625C],92
5,CC(C)C(=O)Nc1cc2cccnc2nc1-c1ccc(N(C)C)cc1 [CBK073650],90.6
6,CC(C)C(=O)Nc1cc2cccnc2nc1-c1cccc(C(F)(F)F)c1 [CBK073657],93.7
7,COc1ccc(C(C)C)cc1-c1nc2ncccc2cc1NC(=O)C(C)C [CBK073659],87.8
8,COc1cc(F)ccc1-c1ccc2ccc(NC(=O)C(C)C)nc2n1 [CBK073666],87.1
9,CCCCc1ccc(-c2ccc3ccc(NC(=O)C(C)C)nc3n2)cc1 [CBK073668],93
10,CC(C)C(=O)Nc1ccc2ccc(-c3ccc(C(C)(C)C)cc3)nc2n1 [CBK073669],106
11,CC(C)C(=O)Nc1ccc2c(-c3ccccc3)ccnc2n1 [CBK073671],101
12,CC(C)C(=O)Nc1ccc2c(-c3ccc4c(c3)CCO4)ccnc2n1 [CBK073672],87.7
13,CC(C)C(=O)Nc1ccc2c(-c3ccc4c(c3)OCCCO4)ccnc2n1 [CBK073675],96.7
14,Oc1cc2cccnc2nc1-c1ccc2c(c1)CCO2 [CBK073698],76
15,COc1ccc(-c2nc3ncccc3cc2O)cc1C [CBK073700],70.1
16,CCCCc1ccc(-c2nc3ncccc3cc2O)cc1 [CBK073702],91.3
17,Oc1cc2cccnc2nc1-c1ccc(OCc2ccccc2)c(F)c1 [CBK073708],91.2
18,O=c1ccc2ccc(-c3ccsc3)nc2[nH]1 [CBK073710],97
19,CC(C)(C)c1ccc(-c2ccc3ccc(=O)[nH]c3n2)cc1 [CBK073716],96.5
20,CS(=O)(=O)c1ccc(-c2ccc3ccc(=O)[nH]c3n2)cc1 [CBK073719],86.7
21,COc1cc(-c2ccc3ccc(=O)[nH]c3n2)cc(OC)c1OC [CBK073721],98.8
22,O=c1ccc2ccc(-c3cccc(OCc4ccccc4)c3)nc2[nH]1 [CBK073722],95.9
23,COc1ccc(-c2ccnc3[nH]c(=O)ccc23)cc1C [CBK073726],110

row,Structure (SMILES),"viability at 28.5 h, 10 µM [%]"
1,O=c1ccc2c(-c3cccc(C(F)(F)F)c3)ccnc2[nH]1 [CBK073733],90.5
2,COc1ccc(C(C)C)cc1-c1ccnc2[nH]c(=O)ccc12 [CBK073735],102
3,COc1ccc([C@@]23CC[C@@H](NC(=O)Nc4ccc5c(c4)OC(F)(F)O5)C[C@@H]2N(C)CC3)cc1OC [CBK073743T],88.8
4,CCNc1cc2ccccc2c(-c2cc(C(C)C)ccc2OC)n1 [CBK073777],110
5,COc1ccc(C(C)C)cc1-c1nc(NS(C)(=O)=O)cc2ccccc12 [CBK073779],94.2
6,CC(C)C(=O)Nc1cc2ccccc2c(-c2ccc(OCc3ccccc3)c(F)c2)n1 [CBK073783],89.8
7,CS(=O)(=O)Nc1cc2ccccc2c(-c2ccc(OCc3ccccc3)c(F)c2)n1 [CBK073785],92.7
8,CC(C)C(=O)Nc1cc2ccccc2c(-c2cccnc2)n1 [CBK073786],101
9,CN1C(=O)C(CCNc2ccccc2)S/C1=N/C1CC2C=CC1C2 (centres unmarked) [CBK073812],114
10,c1ccc(C(CC2CCCCC2)NCc2cccnc2)cc1 (centres unmarked) [CBK073816],96.3
11,COc1ccc(C)cc1S(=O)(=O)Nc1cc(N2CCNC(C(F)(F)F)C2)c2occc2c1 (centres unmarked) [CBK073818C],104
12,COc1cc([C@@]23CC[C@@H](NC(=O)Nc4cc(F)ccc4F)C[C@@H]2N(C)CC3)ccc1OC(F)F [CBK073834],106
13,Cc1ccc(S(=O)(=O)Nc2nccnc2-c2ccc(Cc3nnn[nH]3)cc2)cc1 [CBK073841],96.9
14,O=C(O)CCC(=O)NCc1ccc(-c2nccnc2NS(=O)(=O)c2ccc(O)cc2)cc1 [CBK073843],106
15,O=Cc1ccc(-c2nccnc2NS(=O)(=O)c2ccccc2)cc1 [CBK073845],97.3
16,CCC(CC)C(=O)N1c2ccccc2C(C)(c2ccccc2)CC1(C)C (centres unmarked) [CBK073862],91.5
17,Cc1noc(C)c1S(=O)(=O)Nc1ccc2cc(Br)cnc2n1 [CBK073893],93.1
18,O=S(=O)(Nc1ccc2cc(Br)cnc2n1)c1cccc2nsnc12 [CBK073894],82.8
19,O=C(O)c1cc(S(=O)(=O)Nc2ccc3cc(Br)cnc3n2)c(F)cc1Cl [CBK073898],92.2
20,CCNC(=O)c1cn(Cc2ccccc2)nn1 [CBK073904],97.9
21,COc1ccc([C@@]23CC[C@@H](NC(=O)c4ccc(C(F)(F)F)cc4F)C[C@@H]2N(C)CC3)cc1OC [CBK073976T],108
22,COc1ccc([C@@]23CC[C@@H](NC(=O)Nc4cc(F)c(C#N)cc4F)C[C@@H]2N(C)CC3)cc1OC [CBK073979T],98.2
23,COc1ccc([C@@]23CC[C@@H](NC(=O)c4cccc(Cl)c4)C[C@@H]2N(C)CC3)cc1OC [CBK073982T],93.5

row,Structure (SMILES),"viability at 28.5 h, 10 µM [%]"
1,O=S(=O)(Nc1cc(OC2CCCNC2)c2occc2c1)c1cc(F)ccc1F (centres unmarked) [CBK073996C],105
2,CC(C)[C@H]1SC(NC[C@H](C)c2ccccc2)=NC1=O [CBK074034],93.6
3,FC(F)(F)Oc1ccccc1-c1nnc(NC2CCCCCC2)s1 [CBK074041],93.8
4,CS(=O)(=O)Nc1nccnc1N1CCNCC1 [CBK074045T],105
5,Cc1cccc(C(=O)N2CCCC(C)C2)c1 (centres unmarked) [CBK074057],95.4
6,COc1ccccc1CCCN1CCC2(C1)c1[nH]c3ccccc3c1CCN2S(C)(=O)=O (centres unmarked) [CBK074095],113
7,COc1ccc(C(c2ccccc2C)N(C)C(=O)C2CCNCC2)cn1 (centres unmarked) [CBK074124],100
8,COc1cc(C)ccc1S(=O)(=O)Nc1cc(OC2CCNCC2)c2occc2c1 [CBK074192C],98.6
9,CCC1CCCCN1C(=O)c1cc2ccccc2s1 (centres unmarked) [CBK074211],85.3
10,COc1ccc([C@@]23CC[C@@H](NC(=O)c4ccc(-c5csnn5)cc4)C[C@@H]2N(C)CC3)cc1OC [CBK074256T],100
11,COc1ccc([C@@]23CC[C@@H](NC(=O)c4cc(F)c(Cl)cc4Cl)C[C@@H]2N(C)CC3)cc1OC [CBK074264T],97.4
12,CS(=O)(=O)Nc1nccnc1OC1CCNCC1 [CBK074265T],90.6
13,CC1(CC(=O)N2CCCCCC2)SC(NC2CCCCCC2)=NC1=O (centres unmarked) [CBK074269],96
14,COc1ccc(CNC(C)C2COc3ccccc3O2)c(OC)c1 (centres unmarked) [CBK074283G],88.8
15,CCOC(=O)CCNC(C)C1COc2ccccc2O1 (centres unmarked) [CBK074284G],101
16,CCOC(=O)c1sc(-c2ccccc2)nc1O [CBK074298],96.9
17,COc1ccc([C@@]23CCN(C(=O)c4ccc(Cl)c(Cl)c4)C[C@@H]2CN(C)C3)cc1OC [CBK074308T],99.4
18,CC(=O)Nc1ccc(N2CCN(CCO)CC2)cc1OCCCOc1ccccc1 [CBK074317T],110
19,CCC1CCCCN1C(=O)c1cc2cc(Cl)ccc2[nH]1 (centres unmarked) [CBK074329],102
20,COc1ccc(C(=O)N2CCC(Cc3ccccc3)CC2)cc1 [CBK074337],95.8
